Here are results for 1 compound from patent US11883509B2, “Pharmaceutical composition for inhalation administration for labeling pulmonary tumorous lesion, containing fluorescent contrast agent as active ingredient” (KOREA UNIVERSITY RESEARCH AND BUSINESS FOUNDATION, priority 2018, dated 2024).

What all share (assay type): in vivo
In one data set the test system is lung cancer cells. Briefly: Distribution of inhaled ICG in mouse lung cancer model with GFP-labeled lung cancer cells. The following applies: fluorescence imaging. The text has this: In order to investigate the boundary of cancer cells and ICG distribution more accurately, a mouse lung cancer model was established by labeling lung cancer cells with GFP and the distribution of ICG administered through respiration was investigated by fluorescence imaging.

The subject of data set [1] is VX2 carcinoma. In words: Identification of boundary of cancer tissue in lung tumor-induced rabbit model through airway administration of ICG. The conditions noted are these: ICG 0.75 mg/mL inhaled 4 minutes. As to the method: (§1) In Example 1, it was confirmed that the ICG administered via the airway through respiration stained the lung tissue quickly and emitted strong fluorescence with little effect on other organs. Then, it was investigated whether the airway administration of ICG can be used to distinguish cancer tissue from normal tissue by staining only the normal tissue in a lung tumor animal model. Specifically, a lung tumor-induced rabbit model was prepared as shown in FIG. 2 by transplanting VX2 carcinoma into the lungs of a rabbit. The rabbit was made to inhale ICG (0.75 mg/mL) for 4 minutes by connecting a nebulizer to a ventilator. 1 hour later, the chest of the rabbit was cut open and the fluorescence images of the lung were acquired using a NIR imaging system. After conducting surgery for pulmonary nodules, the excised lung tissue was prepared into 10 μm-thick cryosections and optical images were acquired using a NIR microscope. Then, the lung tissue was stained with H&E, and the boundary of cancer tissue was observed histologically.

The subject of data set [2] is VX2 carcinoma. In words: Cancer detection rate (TMDE) in lung tumor-induced rabbit model depending on administration route of ICG. The conditions noted are these: 0.25 mg/kg ICG through respiration vs 5 mg/kg intravenous, TMDE at 1, 3, 6, 24 hours. As to the method: as §1, with “Then, the lung tissue was stained with H&E, and the boundary of cancer tissue was observed histologically.” left out
Specifically, after extracting the lungs from a lung tumor-induced rabbit model to which 0.25 mg/kg ICG was administered through respiration in the same manner as in Example 2 and a lung tumor-induced rabbit model to which 5 mg/kg ICG was administered intravenously, fluorescence images were acquired and TMDE was quantitated 1 hour later, 3 hours later, 6 hours later and 24 hours later using a NIR imaging system.

A short description of data set [3]: Distribution of ICG administered to normal mice via airway and fluorescence duration. As to the method: It was investigated, when Indocyanine green (ICG) is administered via the airway of a subject through respiration, whether the lungs are stained properly, organs other than the lungs are also affected, how long the staining lasts, etc. More specifically, 0.25 mg/mL ICG were administered to normal mice for 10 minutes through respiration using the SciReq nebulizer, as shown in FIG. 1a. The, the ICG (2.5 mg/kg)-administered mice were sacrificed 10 minutes, 1 hour, 3 hours, 6 hours and 24 hours later. After extracting the brain, lung, liver, kidney and spleen, fluorescence images were acquired and fluorescence signal intensity was measured using a fluorescence imaging system.

Another data set relates to lung tumor. Briefly: Visualization of lesion in human lungs through administration of ICG via bronchus. As to the method: As confirmed in Examples 2-4, remarkably high cancer detection rate could be achieved through airway administration of ICG for lung tumor even with a less amount of ICG. […] Specifically, the lobar bronchi of six lung tumor patients who received surgery for pulmonary nodules in Korea University Guro Hospital were connected with tubes and 0.75 mg/mL ICG was administered for 4 minutes using a nebulizer. Then, fluorescence images were acquired using a NIR imaging system.

In data set [4] the test system is VX2 carcinoma. In words: Cancer detection rate (TMDE) in lung tumor-induced rabbit model depending on concentration of administered ICG. The procedure: as §1
It was investigated whether the desired effect can be achieved with a less amount of ICG administered by airway administration as compared to intravenous administration of ICG. Specifically, after administering ICG at different concentrations (0.1 mg/kg, 0.25 mg/kg, 0.5 mg/kg, 1 mg/kg) in the same manner as in Example 2 to the lung tumor-induced rabbit model of Example 2, the fluorescence images of the lung were acquired and TMDE (tumor margin detection efficiency) depending on the ICG concentration was compared.

Where [5] appears, read: airway administration by nebulizer, ICG 2.5 mg/kg.
The mark [6] stands for this setting: airway administration, extracted organs, fluorescence imaging.
[7] abbreviates: six lung tumor patients, 0.75 mg/mL ICG via lobar bronchus 4 minutes.

The structures appear in SMILES notation. Several values for one entry are separate records, joined by “and”; a condition that tells them apart may be missing. Identical values can stand only once. Bounds are passed on as bounds.

As for `CC1(C)C(/C=C/C=C/C=C/C=C2\N(CCCCS(=O)(=O)O)c3ccc4ccccc4c3C2(C)C)=[N+](CCCCS(=O)(=O)[O-])c2ccc3ccccc3c21` [ICG, Indocyanine green], in the data set with lung cancer cells, the “distribution of ICG administered through respiration” value was “distributed through the lungs except for the lung cancer cells”. In addition, in the data set with VX2 carcinoma [1], the “boundary of cancer tissue identified by ICG versus H&E histology” value is “consistent with the histologically observed boundary of cancer”. In addition, in the data set on VX2 carcinoma [1] (imaged 1 hour later), the “diameter of the cancer tissue negatively contrasted by ICG” value was found to be 2 mm and the “distribution of inhaled ICG in cancer tissue versus normal tissue” value is “not distributed in the cancer tissue but stains the normal tissue only”. For the same compound, the “cancer detection rate (TMDE) of respiration administration relative to intravenous administration” value with VX2 carcinoma [2] is on record as no less than 2.5 times. For the same compound, in data set [3] (setting [5]), the “time after administration at which fluorescence is emitted in the lungs” value is no more than 10 min, the “time after administration at which fluorescence signals could still be detected” value was no less than 24 h and the “time of peak fluorescence signals after administration” value worked out at 1 h. In addition, in data set [3] (setting [6]), the “distribution of ICG in the kidney and spleen” value is “almost nonexistent”; the “distribution of ICG in the lung” value is on record as “present at high concentrations particularly in the lung”. For the same compound, in the data set with lung tumor (six lung tumor patients (Case 1-6, one value per patient), 0.75 mg/mL ICG via lobar bronchus 4 minutes by nebulizer), the TMDE was 2.8 (2×) and 2.7 and 3.3 and 2.6 and 3.4. In the data set on lung tumor (setting [7]), the “boundary between cancer tissue and normal tissue versus pathology” value is recorded as “consistent with the pathological outcome for each patient”; the “distribution of inhaled ICG in human lungs” value is “distributed only in the normal tissue of the lungs”. Further, the “ICG concentration needed for accurate detection of the boundary of lung tumor” value with VX2 carcinoma [4] (airway administration) is reported as no less than 0.25 mg/kg. Also, in the data set on VX2 carcinoma [4] (airway administration of ICG at 0.1, 0.25, 0.5 and 1 mg/kg), the “detection of boundary of cancer tissue” value is “could be detected effectively”. The “lung tumor detection rate (TMDE) versus ICG concentration” value in the data set on VX2 carcinoma [4] (airway administration, 0.1-1 mg/kg) is listed as “increased depending on the concentration of ICG”.
